Measurements: patent US20120219550A1, “PHARMACEUTICAL COMBINATIONS COMPRISING A PYRIDO [4,3-D] PYRIMIDINE DERIVED HSP90-INHIBITOR AND A HER2 INHIBITOR” (NOVARTIS AG, priority 2008, published 2012)

Test system: BT-474 breast cancer xenograft
Experiment: Antitumor effect in BT-474 human breast carcinoma xenograft model in nude mice
Assay type: in vivo
Conditions: BT-474 xenograft, 21 days treatment, i.v.
Experimental: The estrogen receptor positive cell line BT-474 (ATCC, number HTB-20) which is a human breast carcinoma cell line is used. The cells are grown in DMEM high glucose (4.5 g/l) supplemented with 10% FCS, […] L-glutamine and 1% sodium pyruvate.
In preparation for cell inoculation, each mouse is subcutaneously implanted on the upper dorsal side with a 17β-Estradiol pellet (25 microgram/day; 90 day release) using a trocar needle. BT-474 cells (5×10̂6) are injected in 200 microliter Matrigel:HBSS (1:1 vol) (BD Matrigel™ Basement Membrane Matrix). The injection site is subcutaneously in the right flank. Treatment with compound I is initiated when the average tumor volume reached approximately 100 mm^3 Tumor growth is monitored at regular intervals. The xenograft tumor sizes is measured manually with calipers and the tumor volume is estimated using the formula: […], where width (W) and length (L) are the two largest diameters. Results are presented as mean±SEM. Tumor data are analyzed by ANOVA with post hoc Dunnet's test for comparison of treatment versus control group.
As a measure of efficacy the % T/C value is calculated at the end of the experiment according to:
(Δtumor volumetreated/Δtumor volumecontrol)*100
Where Δtumor volumes represent the mean tumor volume on the evaluation day minus the mean tumor volume at the start of the experiment.
Tumor regression is presented as the relative absolute change in tumor volume from the start to the end of the experiment (−(Tumor volumeevaluation day−Tumor volumestart day)/Tumor volumestart day*100).
The antitumor effect of compound I and trastazumab is evaluated in the BT-474 xenograft model (FIG. 1). The treatment period is 21 days and each treatment group consists of 8 tumor bearing animals. The tumor sizes in the treatment groups are compared to those of the vehicle treated groups and the effect is expressed as % T/C or regression when applicable. […] Compound I is administered i.v. once per week at a dose of 15 mg/kg.

## CCNC(=O)c1noc(-c2cc(C(C)C)c(O)cc2O)c1-c1ccc(CN2CCOCC2)cc1 [Compound I, 5-(2,4-Dihydroxy-5-isopropyl-phenyl)-4-(4-morpholin-4-ylmethyl-phenyl)-isoxazole-3-carboxylic acid ethylamide]
  antitumor effect in words (comparison with vehicle or single agents): no statistically significant difference from vehicle treated animals
Trastuzumab 5 mg/kg 2 qw, Compound I 15 mg/kg qw, end of experiment
  T/C (%): 96%
Trastuzumab 5 mg/kg twice per week, Compound I 15 mg/kg qw
  reduction of tumor burden: 4%
Mean ± SEM, Trastuzumab 5 mg/kg 2 qw, Compound I 15 mg/kg qw
  ΔTumor volume (mm^3): 929 ± 152 mm^3
